PMC4175002, “The Design and Synthesis of Potent and Selective Inhibitors of Trypanosoma brucei Glycogen Synthase Kinase 3 for the Treatment of Human African Trypanosomiasis” (Journal of Medicinal Chemistry, 2014)

Tests used:
[1] = molecular target: HsGSK3β (Homo sapiens, UniProt P49841); assay: Radiometric Flashplate potency assay, HsGSK3β; format: biochemical; conditions: for ratio HsGSK3β/TbGSK3: ratio of IC50 values
Method: (§1) For compound potency determinations, a radiometric 96-well Flashplate assay (PerkinElmer) was adopted. Compounds were solubilized in DMSO at a top concentration of 3 mM and serially diluted to achieve 10-point titration of final assay concentrations from 30 μM to 0.3 nM with a final DMSO concentration of 1% (v/v). The reaction mixtures contained 1 μM biotinylated GSP2 substrate, 1 μM ATP, 3.7 KBq/well [γ-33P]-ATP and 2.5 nM TbGSK3 in the TbGSK3 kinase assay buffer. GSK3 inhibitors were screened for selectivity assessment also against HsGSK3β. For HsGSK3 assay, the reaction mixes contained 1 μM biotinylated GSP2 substrate, 2 μM ATP, 7.4 KBq/well [γ-33P]-ATP and 15 nM HsGSK3β in the TbGSK3 kinase assay buffer (25 mM Tris-HCl, pH 7.5, 10 mM MgCl2, 5 mM DTT, 0.02% CHAPS, 2 U/mL heparin). For HsCDK2/cyclin A assay, the reaction mixtures contained 1 mM CDK5 biotinylated peptide substrate (Biotin-C6-PKTPKKAKKL), 1 μM ATP, 7.4 KBq/well [γ-^33P]-ATP and 2 nM HsCDK2/cyclin A in the kinase assay buffer (50 mM Tris-HCl, pH 7.5, 10 mM MgCl2, 2 mM DTT, 100 mM NaCl, 0.2 mM EGTA, 0.02% (v/v) Brij35).
This implies that a difference of >0.3 in pIC50 can be considered statistically significant for this assay.

[2] = molecular target: T1, TbGSK3 short (Trypanosoma brucei brucei, UniProt Q388M1); assay: Radiometric 96-well Flashplate potency assay, TbGSK3; format: biochemical; conditions: for decrease in potency against TbGSK3: relative to cyclohexane analogue 9c
T1 sequence (Q388M1 1-352): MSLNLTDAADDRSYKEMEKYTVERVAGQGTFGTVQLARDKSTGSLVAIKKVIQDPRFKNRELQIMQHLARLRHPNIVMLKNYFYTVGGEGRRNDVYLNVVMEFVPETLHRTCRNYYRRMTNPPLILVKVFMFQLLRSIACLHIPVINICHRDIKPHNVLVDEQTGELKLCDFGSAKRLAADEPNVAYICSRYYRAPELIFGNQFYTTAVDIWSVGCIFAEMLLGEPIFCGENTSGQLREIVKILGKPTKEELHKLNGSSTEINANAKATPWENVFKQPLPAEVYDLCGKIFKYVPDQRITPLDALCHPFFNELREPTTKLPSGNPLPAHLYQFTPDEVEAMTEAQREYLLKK
Method: as §1
The statistical significance of the compound potency (IC50) was based on the performance of standard molecules which have been tested to a high replication. In the case of TbGSK3 short assay, the standard compound GW8510 was tested 93 times across 9 independent runs. […] The minimum significant ratio (MSR) of 0.4 was evaluated considering the following formula: [drawing 1] where SD is the standard deviation and N the number of replicate values routinely used for the assay (2 in our case).[31] This implies that a difference of >0.4 in pIC50 can be considered statistically significant for this assay.

HsGSK3β, sequence (P49841 whole entry): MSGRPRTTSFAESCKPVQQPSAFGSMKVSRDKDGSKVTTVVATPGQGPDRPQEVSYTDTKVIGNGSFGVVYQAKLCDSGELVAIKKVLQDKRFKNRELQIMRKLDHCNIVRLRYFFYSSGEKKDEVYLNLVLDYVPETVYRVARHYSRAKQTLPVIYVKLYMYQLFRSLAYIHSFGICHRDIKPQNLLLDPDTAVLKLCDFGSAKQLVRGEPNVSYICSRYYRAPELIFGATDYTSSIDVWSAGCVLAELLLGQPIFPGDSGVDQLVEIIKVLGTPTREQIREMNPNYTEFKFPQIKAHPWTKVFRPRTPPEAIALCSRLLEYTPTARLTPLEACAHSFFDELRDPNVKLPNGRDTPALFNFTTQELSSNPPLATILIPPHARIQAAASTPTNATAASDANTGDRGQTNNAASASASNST

Compound	ratio HsGSK3β/TbGSK3 [1]	further results
CO[C@H]1CC[C@H](NC(=O)c2n[nH]cc2NC(=O)c2cc3ccccn3n2)CC1 [Compound 4v, N-(3-((4-Methoxycyclohexyl)carbamoyl)-1H-pyrazol-4-yl)pyrazolo[1,5-a]pyridine-2-carboxamide]	<0.080	
CO[C@H]1CC[C@H](NC(=O)c2n[nH]cc2NC(=O)c2cc(F)cc(F)c2)CC1 [Compound 4p, 4-(3,5-Difluorobenzamido)-N-(4-methoxycyclohexyl)-1H-pyrazole-3-carboxamide]	<0.21	
COc1cccc(OC)c1C(=O)Nc1c[nH]nc1C(=O)Nc1ccccc1 [Compound 9k, 4-(2,6-Dimethoxybenzamido)-N-phenyl-1H-pyrazole-3-carboxamide]		decrease in potency against TbGSK3 [2]: 6 fold
CO[C@H]1CC[C@H](NC(=O)c2n[nH]cc2NC(=O)c2ccc(N3CCN(C)CC3)cc2)CC1 [Compound 4t, N-(4-Methoxycyclohexyl)-4-(4-(4-methylpiperazin-1-yl)benzamido)-1H-pyrazole-3-carboxamide]	<0.071	
COc1cccc(OC)c1C(=O)Nc1c[nH]nc1C(=O)Nc1ccncc1 [Compound 9l, 4-(2,6-Dimethoxybenzamido)-N-(pyridin-4-yl)-1H-pyrazole-3-carboxamide]		decrease in potency against TbGSK3 [2]: 6 fold
COc1cccc(OC)c1C(=O)Nc1c[nH]nc1C(=O)N[C@H]1CC[C@H](OC)CC1 [Compound 9x]	<2.5	
CO[C@H]1CC[C@H](NC(=O)c2n[nH]cc2NC(=O)c2cc(Cl)cc(Cl)c2)CC1 [Compound 4q, 4-(3,5-Dichlorobenzamido)-N-(4-methoxycyclohexyl)-1H-pyrazole-3-carboxamide]	<0.08	
CO[C@H]1CC[C@H](NC(=O)c2n[nH]cc2NC(=O)c2ccccc2C(F)(F)F)CC1 [Compound 4h, N-(4-Methoxycyclohexyl)-4-(2-(trifluoromethyl)benzamido)-1H-pyrazole-3-carboxamide]	<0.72	
CO[C@H]1CC[C@H](NC(=O)c2n[nH]cc2NC(=O)c2ccc(F)cc2F)CC1 [Compound 4o, 4-(2,4-Difluorobenzamido)-N-(4-methoxycyclohexyl)-1H-pyrazole-3-carboxamide]	<0.09	
COc1cccc(OC)c1C(=O)Nc1c[nH]nc1C(=O)Nc1ccccn1 [Compound 9m, 4-(2,6-Dimethoxybenzamido)-N-(pyridin-2-yl)-1H-pyrazole-3-carboxamide]		loss of activity against TbGSK3 ([2]; 2-pyridine analogue much less active, comparator not stated clearly (9c or 9k/9l)): 50 fold
CO[C@H]1CC[C@H](NC(=O)c2n[nH]cc2NC(=O)c2cnc3ccccn23)CC1 [Compound 4w, N-(3-((4-Methoxycyclohexyl)carbamoyl)-1H-pyrazol-4-yl)imidazo[1,2-a]pyridine-3-carboxamide]	<0.053	
O=C1Nc2ccc3ncsc3c2/C1=C/Nc1ccc(S(=O)(=O)Nc2ccccn2)cc1 [GW8510, reference compound]		average pIC50 TbGSK3 short assay ([2]; standard compound tested 93 times across 9 independent runs, SD 0.23): 8.26; average pIC50 HsGSK3 assay ([1]; standard compound tested 47 times across 5 independent runs, SD 0.21): 8.10
CO[C@H]1CC[C@H](NC(=O)c2n[nH]cc2NC(=O)c2cc3ccccc3o2)CC1 [Compound 4u, 4-(Benzofuran-2-carboxamido)-N-(4-methoxycyclohexyl)-1H-pyrazole-3-carboxamide]	<0.38	
CO[C@H]1CC[C@H](NC(=O)c2n[nH]cc2NC(=O)c2ccc(OC(F)F)cc2)CC1 [Compound 4r, 4-(4-(Difluoromethoxy)benzamido)-N-(4-methoxycyclohexyl)-1H-pyrazole-3-carboxamide]	<0.31	
